The values that follow come from DBAASP.

The MIC is the least concentration at which growth counts as inhibited. Read a low MIC as greater potency.

Holding throughout (test): ≥ marks a high value that may be exact or a test limit, other limits are often not marked, values filed in µg/mL are converted to µM
In experiment [1] the test system is Pseudomonas aeruginosa Ps4.
The subject of experiment [2] is Candida albicans.
In experiment [3] the test system is Escherichia coli UB1005.
Experiment [4] concerns Staphylococcus aureus ATCC 25923.
Experiment [5] concerns Staphylococcus epidermidis.
In experiment [6] the test system is Salmonella enterica serovar Typhimurium.
Experiment [7] has as its system Pseudomonas aeruginosa H103.
Experiment [8] has as its system Enterococcus faecalis ATCC 29212.
In experiment [9] the test system is Enterococcus faecium mic80.
In experiment [10] the test system is Candida albicans C627.
Experiment [11] concerns Staphylococcus aureus C623.
Experiment [12] deals with Pseudomonas aeruginosa LES400.
The test system of experiment [13] is Pseudomonas aeruginosa 213.
The subject of experiment [14] is Escherichia coli ESBL 63103.
Experiment [15] concerns Clavibacter michiganensis subsp. michiganensis DSM 46294.
For experiment [16], the system named is Xanthomonas vesicatoria DSM 50861.
For experiment [17], the system named is Pectobacterium carotovorum subsp. carotovorum DSM 30168.
Experiment [18] relates to Pseudomonas syringae pv. syringae DSM 10604.
Experiment [19] concerns Pseudomonas corrugata DSM 7228.
Experiment [20] concerns Pseudomonas syringae pv. tomato DC3000.
In experiment [21] the test system is Escherichia coli SBS 363.
The subject of experiment [22] is Micrococcus luteus A270.
Experiment [23] deals with Candida albicans MDM8.

Converted amounts (≈) assume the structure as drawn.

Take `CC[C@H](C)[C@H](NC(=O)[C@H](CC(N)=O)NC(=O)[C@H](CCCN=C(N)N)NC(=O)[C@H](CCC(N)=O)NC(=O)[C@H](Cc1c[nH]c2ccccc12)NC(=O)[C@H](Cc1ccccc1)NC(=O)[C@@H](N)CS)C(=O)N[C@@H](CCCN=C(N)N)C(=O)N[C@@H](CCCCN)C(=O)N[C@H](C(=O)N[C@@H](CCCN=C(N)N)C(=O)N[C@@H](CS)C(N)=O)C(C)C` [CFWQRNIRKVRC]: the MIC in experiment [1] is not below 155 µM.
In [1], `CC[C@H](C)[C@H](NC(=O)[C@H](CC(N)=O)NC(=O)[C@H](CCCN=C(N)N)NC(=O)[C@@H]1CCCN1C(=O)[C@H](Cc1c[nH]c2ccccc12)NC(=O)[C@@H](N)Cc1ccccc1)C(=O)N[C@@H](CCCN=C(N)N)C(=O)N[C@@H](CCCCN)C(=O)N[C@H](C(=O)N[C@@H](CCCN=C(N)N)C(N)=O)C(C)C` [FWPRNIRKVR] yielded an MIC not below 182 µM.
`CC[C@H](C)[C@H](NC(=O)[C@H](CC(N)=O)NC(=O)[C@H](CCCN=C(N)N)NC(=O)[C@H](CCC(N)=O)NC(=O)[C@H](Cc1c[nH]c2ccccc12)NC(=O)[C@@H](N)Cc1ccccc1)C(=O)N[C@@H](CCCN=C(N)N)C(=O)N[C@@H](Cc1ccccc1)C(=O)N[C@@H](CCCN=C(N)N)C(=O)N[C@@H](CCCN=C(N)N)C(N)=O` [FWQRNIRFRR] registered an MIC in experiment [1] not below 250 µM.
`CC[C@H](C)[C@H](N)C(=O)N[C@@H](CCCN=C(N)N)C(=O)N[C@@H](CCSC)C(=O)N[C@@H](CCCN=C(N)N)C(=O)N[C@H](C(=O)N[C@@H](CCCN=C(N)N)C(=O)N[C@H](C(=O)N[C@@H](CC(C)C)C(=O)N[C@@H](CC(C)C)C(=O)O)C(C)C)[C@@H](C)CC` [IRMRIRVLL]: the MIC in [2] worked out at 16 µM (≈ 18.7 µg/mL); in [3] it was 2 µM (≈ 2.34 µg/mL); in [4], 4 µM (≈ 4.68 µg/mL); in [5] it was 2 µM (≈ 2.34 µg/mL); in [6] it was 4 µM (≈ 4.68 µg/mL); in [7] it was 16 µM (≈ 18.7 µg/mL). In addition, the MIC in experiment [8] was 16 µM (≈ 18.7 µg/mL).
With `CC[C@H](C)[C@H](NC(=O)[C@H](CC(C)C)NC(=O)[C@H](CCSC)NC(=O)[C@H](CCCN=C(N)N)NC(=O)[C@H](Cc1c[nH]c2ccccc12)NC(=O)[C@H](Cc1c[nH]c2ccccc12)NC(=O)[C@H](CCCCN)NC(=O)[C@H](Cc1ccccc1)NC(=O)[C@@H](N)CCCCN)C(=O)O` [KFKWWRMLI], the MIC was 4.6 µM (≈ 6.02 µg/mL) in experiment [2]; 0.6 µM (≈ 0.785 µg/mL) in experiment [3]; 1.2 µM (≈ 1.57 µg/mL) in experiment [4]; 0.6 µM (≈ 0.785 µg/mL) in [5]; 2.3 µM (≈ 3.01 µg/mL) in experiment [6]; 4.6 µM (≈ 6.02 µg/mL) in experiment [7]. In experiment [8], this compound came in with an MIC of 2.3 µM (≈ 3.01 µg/mL).
For `NCCCC[C@H](NC(=O)[C@@H](N)CCCCN)C(=O)N[C@@H](CCCN=C(N)N)C(=O)N[C@@H](Cc1c[nH]c2ccccc12)C(=O)N[C@@H](Cc1c[nH]c2ccccc12)C(=O)N[C@@H](Cc1c[nH]c2ccccc12)C(=O)N[C@@H](Cc1c[nH]c2ccccc12)C(=O)N[C@@H](Cc1c[nH]c2ccccc12)C(=O)N[C@@H](CCCN=C(N)N)C(=O)O` [KKRWWWWWR], the MIC in experiment [9] was determined as 5.27 µM (≈ 8 µg/mL); in experiment [10], 2.64 µM (≈ 4 µg/mL); in [11] it was 1.32 µM (≈ 2 µg/mL); in experiment [12], 21.1 µM (≈ 32 µg/mL); in experiment [4] it was 2.64 µM (≈ 4 µg/mL); in [13] it was 21.1 µM (≈ 32 µg/mL). For the same compound, the MIC in experiment [7] amounted to 2.64 µM (≈ 4 µg/mL); in experiment [14], 5.27 µM (≈ 8 µg/mL).
On to `NCCCC[C@H](NC(=O)[C@H](Cc1c[nH]c2ccccc12)NC(=O)[C@@H](N)CCCCN)C(=O)N[C@@H](CCCN=C(N)N)C(=O)N[C@@H](Cc1c[nH]c2ccccc12)C(=O)N[C@@H](Cc1c[nH]c2ccccc12)C(=O)N[C@@H](Cc1c[nH]c2ccccc12)C(=O)N[C@@H](Cc1ccccc1)C(=O)N[C@@H](CCCN=C(N)N)C(=O)O` [KWKRWWWFR], for which the MIC in experiment [9] was 21.6 µM (≈ 32 µg/mL); in experiment [10], 21.6 µM (≈ 32 µg/mL); in [11] it was 10.8 µM (≈ 16 µg/mL); in experiment [12], not below 43.3 µM; in experiment [4], 21.6 µM (≈ 32 µg/mL); in experiment [13] it was not below 86.6 µM. Further, the MIC in [7] worked out at 21.6 µM (≈ 32 µg/mL); in experiment [14], 10.8 µM (≈ 16 µg/mL).
As for `CC(C)C[C@H](NC(=O)[C@H](C)NC(=O)[C@H](CCCCN)NC(=O)[C@H](CCCCN)NC(=O)[C@H](C)NC(=O)[C@H](Cc1ccccc1)NC(=O)[C@H](CCCN=C(N)N)NC(=O)[C@@H](N)CC(C)C)C(=O)N[C@@H](CCCCN)C(=O)N[C@@H](CCCCN)C(=O)N[C@@H](CC(C)C)C(=O)N[C@@H](Cc1ccccc1)C(N)=O` [LRFAKKALKKLF], the MIC in experiment [15] worked out at 1.71 µM (≈ 2.5 µg/mL); in experiment [16], 1.71 µM (≈ 2.5 µg/mL); in experiment [17] it was 6.84 µM (≈ 9.99 µg/mL); in [18] it was 0.171 µM (≈ 0.25 µg/mL); in experiment [19], 0.684 µM (≈ 0.999 µg/mL); in experiment [20], 0.171 µM (≈ 0.25 µg/mL).
Regarding `CC[C@H](C)[C@H](NC(=O)[C@H](CCCN=C(N)N)NC(=O)[C@@H](NC(=O)[C@H](CC(N)=O)NC(=O)[C@H](CCCN=C(N)N)NC(=O)[C@H](CCC(N)=O)NC(=O)[C@H](Cc1c[nH]c2ccccc12)NC(=O)[C@H](Cc1ccccc1)NC(=O)[C@@H](N)CCCN=C(N)N)[C@@H](C)CC)C(=O)N[C@@H](CCCN=C(N)N)C(=O)N[C@@H](CCCN=C(N)N)C(N)=O` [RFWQRNIRIRR], the minimum inhibitory concentration (MIC) in experiment [1] was not below 156 µM.
On the same count and under the same terms, to `CC[C@H](C)[C@H](NC(=O)[C@H](CC(N)=O)NC(=O)[C@H](CCCN=C(N)N)NC(=O)[C@H](CCC(N)=O)NC(=O)[C@H](Cc1c[nH]c2ccccc12)NC(=O)[C@H](Cc1ccccc1)NC(=O)[C@@H](N)CCCN=C(N)N)C(=O)N[C@@H](CCCN=C(N)N)C(=O)N[C@@H](CCCCN)C(=O)N[C@@H](Cc1ccc(O)cc1)C(=O)N[C@@H](CCCN=C(N)N)C(N)=O` [RFWQRNIRKYR] belongs not below 154 µM.
As to `CC[C@H](C)[C@H](NC(=O)[C@@H](N)CCCN=C(N)N)C(=O)N[C@@H](Cc1c[nH]c2ccccc12)C(=O)N[C@@H](CCCCN)C(=O)N[C@@H](CCCN=C(N)N)C(=O)N[C@@H](Cc1c[nH]c2ccccc12)C(=O)N[C@@H](Cc1c[nH]c2ccccc12)C(=O)N[C@@H](Cc1ccccc1)C(=O)N[C@@H](CCCN=C(N)N)C(=O)O` [RIWKRWWFR], the MIC in experiment [9] was not below 44.6 µM; in experiment [10], not below 89.3 µM; in experiment [11], 22.3 µM (≈ 32 µg/mL); in [12] it was not below 89.3 µM; in experiment [4], 44.6 µM (≈ 64 µg/mL); in experiment [13], not below 89.3 µM. The MIC in experiment [7] was not below 89.3 µM; in [14] it was not below 44.6 µM.
As to `CC[C@H](C)[C@H](NC(=O)[C@H](CC(C)C)NC(=O)[C@H](CCCN=C(N)N)NC(=O)[C@H](CCCCN)NC(=O)[C@@H](NC(=O)[C@H](CC(C)C)NC(=O)[C@H](CCCCN)NC(=O)[C@H](CCCCN)NC(=O)[C@H](CCCN=C(N)N)NC(=O)[C@H](CCCCN)NC(=O)[C@H](CCCCN)NC(=O)[C@@H](N)CCCN=C(N)N)[C@@H](C)CC)C(N)=O` [RKKRKKLIKRLI], the MIC is 3.16 µM (≈ 5 µg/mL) in experiment [15]; 3.16 µM (≈ 5 µg/mL) in experiment [16]; 6.33 µM (≈ 9.99 µg/mL) in experiment [17]; 0.0633 µM (≈ 0.1 µg/mL) in experiment [18]; 0.316 µM (≈ 0.5 µg/mL) in experiment [19]; 6.33 µM (≈ 9.99 µg/mL) in experiment [20].
Regarding `CC[C@H](C)[C@H](NC(=O)[C@H](CC(C)C)NC(=O)[C@H](CO)NC(=O)[C@H](CC(C)C)NC(=O)[C@H](CC(C)C)NC(=O)[C@@H](N)CO)C(=O)N[C@@H](CCCN=C(N)N)C(=O)N[C@@H](CCCCN)C(=O)N[C@@H](Cc1ccccc1)C(=O)N[C@@H](Cc1ccccc1)C(=O)N[C@H](C(N)=O)[C@@H](C)O` [SLLSLIRKFFT], the minimum inhibitory concentration (MIC) in experiment [21] was determined as 1.56 µM (≈ 2.06 µg/mL); in experiment [22], 0.39 µM (≈ 0.516 µg/mL); in experiment [23], 1.56 µM (≈ 2.06 µg/mL).
